Laboratory results: ChEMBL document CHEMBL2021859, “Practical access to four stereoisomers of naftidrofuryl and their binding affinity towards 5-hydroxytryptamine 2A receptor” (Bioorg Med Chem Lett, 2012)
Structures can show the parent of a compound that is named as a salt.

Target: 5-hydroxytryptamine receptor 2A (Homo sapiens, UniProt P28223)
Experiment: Displacement of [3H]ketanserin from 5HT2A receptor expressed in HEK293 cells by liquid scintillation spectrophotometry
Format: cell-based

Chain of 5-hydroxytryptamine receptor 2A (P28223 whole entry): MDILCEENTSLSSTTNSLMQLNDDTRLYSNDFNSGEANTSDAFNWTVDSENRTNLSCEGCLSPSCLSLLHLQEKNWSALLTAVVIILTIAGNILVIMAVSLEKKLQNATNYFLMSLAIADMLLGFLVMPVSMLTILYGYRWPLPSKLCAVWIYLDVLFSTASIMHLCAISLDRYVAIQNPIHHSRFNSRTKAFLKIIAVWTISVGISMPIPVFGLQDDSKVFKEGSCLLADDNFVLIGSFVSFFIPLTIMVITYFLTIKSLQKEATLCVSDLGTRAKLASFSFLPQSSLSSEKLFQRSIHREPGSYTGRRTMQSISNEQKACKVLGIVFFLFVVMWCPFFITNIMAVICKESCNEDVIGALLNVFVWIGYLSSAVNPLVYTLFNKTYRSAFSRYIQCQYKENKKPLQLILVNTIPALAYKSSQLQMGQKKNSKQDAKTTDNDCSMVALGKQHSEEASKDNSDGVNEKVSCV

Row | Structure (SMILES) | Ki (read-out: Ki) | Ki (read-out: pKi (converted))
1 | CCN(CC)CCOC(=O)[C@H](Cc1cccc2ccccc12)C[C@@H]1CCCO1 | 972 nM | 1700 nM
2 | CCN(CC)CCOC(=O)[C@H](Cc1cccc2ccccc12)C[C@H]1CCCO1 | 2070 nM | 2290 nM
3 | CCN(CC)CCOC(=O)C(Cc1cccc2ccccc12)CC1CCCO1 (stereo not given) [NAFRONYL OXALATE] | 256 nM | 331 nM

The next compounds have a lower Ki (read-out: Ki) than those just listed; values first:

Row | Ki (read-out: Ki) | Ki (read-out: pKi (converted)) | Structure (SMILES)
4 | 153 nM | 282 nM | CCN(CC)CCOC(=O)[C@@H](Cc1cccc2ccccc12)C[C@@H]1CCCO1
5 | 150 nM | 145 nM | CCN(CC)CCOC(=O)[C@@H](Cc1cccc2ccccc12)C[C@H]1CCCO1
